Measured values from patent publication US20230233690A1, “ANDROGEN RECEPTOR PROTEIN DEGRADERS” (THE REGENTS OF THE UNIVERSITY OF MICHIGAN, priority 2020, published 2023).

Biological target: T1, AR protein (Homo sapiens, UniProt P10275)
T1 construct: endogenous in cells; host or cells: VCaP
T1 sequence (P10275 1-920): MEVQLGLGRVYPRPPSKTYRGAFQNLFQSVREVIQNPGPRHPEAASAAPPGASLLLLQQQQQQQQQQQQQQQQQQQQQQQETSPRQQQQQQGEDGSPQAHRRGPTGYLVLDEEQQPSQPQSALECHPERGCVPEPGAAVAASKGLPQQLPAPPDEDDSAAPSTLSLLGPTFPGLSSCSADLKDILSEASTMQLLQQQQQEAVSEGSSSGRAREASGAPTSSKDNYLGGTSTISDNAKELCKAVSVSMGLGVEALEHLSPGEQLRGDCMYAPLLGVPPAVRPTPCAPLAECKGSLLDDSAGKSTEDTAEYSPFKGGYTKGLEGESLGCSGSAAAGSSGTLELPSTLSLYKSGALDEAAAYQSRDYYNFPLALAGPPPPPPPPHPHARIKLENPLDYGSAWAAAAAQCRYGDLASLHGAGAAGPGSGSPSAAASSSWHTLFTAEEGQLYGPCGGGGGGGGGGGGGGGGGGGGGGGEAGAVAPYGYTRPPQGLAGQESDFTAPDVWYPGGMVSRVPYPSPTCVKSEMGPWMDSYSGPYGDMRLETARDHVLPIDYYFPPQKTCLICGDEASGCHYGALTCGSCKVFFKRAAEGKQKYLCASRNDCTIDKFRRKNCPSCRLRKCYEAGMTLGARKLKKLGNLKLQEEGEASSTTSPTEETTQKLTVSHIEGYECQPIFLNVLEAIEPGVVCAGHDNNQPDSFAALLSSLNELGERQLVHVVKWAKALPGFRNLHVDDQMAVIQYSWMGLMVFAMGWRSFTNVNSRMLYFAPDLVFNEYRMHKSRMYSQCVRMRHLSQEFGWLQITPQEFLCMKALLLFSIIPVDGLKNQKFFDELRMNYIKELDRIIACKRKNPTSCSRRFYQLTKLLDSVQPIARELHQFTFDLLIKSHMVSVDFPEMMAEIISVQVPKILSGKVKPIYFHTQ
Assay: Western blotting of AR protein degradation in VCaP cells
Type: cell-based
Method: The treated cells were lysed with RIPA buffer. […] GAPDH was used as a loading control.
Bands were quantified with ImageJ software. The relative numbers of each band obtained from normalization with its corresponding GAPDH level were compared with Prism 8 software. The DC50 values were produced from Prism 8, and the DC90 values were calculated with an equation=Bottom+(Top−Bottom)/(1+10^((Log EC50−X)*HillSlope) based on DC50 and Hillslope values.

SMILES | % AR protein degradation in VCaP Cells (0.001 μM) [%] | % AR protein degradation in VCaP Cells (0.01 μM) [%] | % AR protein degradation in VCaP Cells (0.1 μM) [%] | % AR protein degradation in VCaP Cells (1 μM) [%]
N#Cc1ccc(O[C@H]2CC[C@H](NC(=O)c3ccc(NCCCCCCCCNc4ccc5c(c4)C(=O)N(C4CCC(=O)NC4=O)C5=O)cc3)CC2)cc1Cl (stereo partly drawn) [compound 214, N-((1r,4r)-4-(3-chloro-4-cyanophenoxy)cyclohexyl)-4-((8-((2-(2,6-dioxopiperidin-3-yl)-1,3-dioxoisoindolin-5-yl)amino)octyl)amino)benzamide] | 27 | 43 | 65 | 46
N#Cc1ccc(O[C@H]2CC[C@H](NC(=O)c3ccc(NCCCCCCCCCCCNc4ccc5c(c4)C(=O)N(C4CCC(=O)NC4=O)C5=O)cc3)CC2)cc1Cl (stereo partly drawn) [compound 217, N-((1r,4r)-4-(3-chloro-4-cyanophenoxy)cyclohexyl)-4-((11-((2-(2,6-dioxopiperidin-3-yl)-1,3-dioxoisoindolin-5-yl)amino)undecyl)amino)benzamide] | 7 | 17 | 39 | 35
N#Cc1ccc(O[C@H]2CC[C@H](NC(=O)c3ccc(N4CCN(CCNc5ccc6c(c5)C(=O)N(C5CCC(=O)NC5=O)C6=O)CC4)cc3)CC2)cc1Cl (stereo partly drawn) [compound 218, N-((1r,4r)-4-(3-chloro-4-cyanophenoxy)cyclohexyl)-4-(4-(2-((2-(2,6-dioxopiperidin-3-yl)-1,3-dioxoisoindolin-5-yl)amino)ethyl)piperazin-1-yl)benzamide] | 6 | 32 | 39 | 21
N#Cc1ccc(O[C@H]2CC[C@H](NC(=O)c3ccc(N4CCN(CCCNc5ccc6c(c5)C(=O)N(C5CCC(=O)NC5=O)C6=O)CC4)cc3)CC2)cc1Cl (stereo partly drawn) [compound 219, N-((1r,4r)-4-(3-chloro-4-cyanophenoxy)cyclohexyl)-4-(4-(3-((2-(2,6-dioxopiperidin-3-yl)-1,3-dioxoisoindolin-5-yl)amino)propyl)piperazin-1-yl)benzamide] | 18 | 69 | 80 | 59
N#Cc1ccc(O[C@H]2CC[C@H](NC(=O)c3ccc(N4CCN(CCCCNc5ccc6c(c5)C(=O)N(C5CCC(=O)NC5=O)C6=O)CC4)cc3)CC2)cc1Cl (stereo partly drawn) [compound 220, N-((1r,4r)-4-(3-chloro-4-cyanophenoxy)cyclohexyl)-4-(4-(4-((2-(2,6-dioxopiperidin-3-yl)-1,3-dioxoisoindolin-5-yl)amino)butyl)piperazin-1-yl)benzamide] | 18 | 60 | 80 | 62
N#Cc1ccc(O[C@H]2CC[C@H](NC(=O)c3ccc(N4CCN(CC5CN(c6ccc7c(c6)C(=O)N(C6CCC(=O)NC6=O)C7=O)C5)CC4)cc3)CC2)cc1Cl (stereo partly drawn) [compound 224, N-((1r,4r)-4-(3-chloro-4-cyanophenoxy)cyclohexyl)-4-(4-((1-(2-(2,6-dioxopiperidin-3-yl)-1,3-dioxoisoindolin-5-yl)azetidin-3-yl)methyl)piperazin-1-yl)benzamide] | 38 | 79 | 85 | 86
N#Cc1ccc(O[C@H]2CC[C@H](NC(=O)c3ccc(N4CCC(N5CCN(c6ccc7c(c6)C(=O)N(C6CCC(=O)NC6=O)C7=O)CC5)CC4)cc3)C2)cc1Cl (stereo partly drawn) [compound 226, N-((1S,3S)-3-(3-chloro-4-cyanophenoxy)cyclopentyl)-4-(4-(4-(2-(2,6-dioxopiperidin-3-yl)-1,3-dioxoisoindolin-5-yl)piperazin-1-yl)piperidin-1-yl)benzamide] | 2 | 3 | 23 | 18
N#Cc1ccc(O[C@@H]2CCC[C@@H](NC(=O)c3ccc(N4CCC(N5CCN(c6ccc7c(c6)C(=O)N(C6CCC(=O)NC6=O)C7=O)CC5)CC4)cc3)CC2)cc1Cl (stereo partly drawn) [compound 227, N-((1R,4R)-4-(3-chloro-4-cyanophenoxy)cycloheptyl)-4-(4-(4-(2-(2,6-dioxopiperidin-3-yl)-1,3-dioxoisoindolin-5-yl)piperazin-1-yl)piperidin-1-yl)benzamide] | 22 | 36 | 34 | 43
N#Cc1ccc(N[C@H]2CC[C@H](NC(=O)c3ccc(N4CCC(N5CCN(c6ccc7c(c6)C(=O)N(C6CCC(=O)NC6=O)C7=O)CC5)CC4)cc3)CC2)cc1Cl (stereo partly drawn) [compound 229, N-((1r,4r)-4-((3-chloro-4-cyanophenyl)amino)cyclohexyl)-4-(4-(4-(2-(2,6-dioxopiperidin-3-yl)-1,3-dioxoisoindolin-5-yl)piperazin-1-yl)piperidin-1-yl)benzamide] | 51 | 62 | 52 | 43

Further lines, results first:

% AR protein degradation in VCaP Cells (0.001 μM) [%] | % AR protein degradation in VCaP Cells (0.01 μM) [%] | % AR protein degradation in VCaP Cells (0.1 μM) [%] | % AR protein degradation in VCaP Cells (1 μM) [%] | SMILES
25 | 70 | 86 | 82 | N#Cc1ccc(O[C@H]2CC[C@H](NC(=O)c3ccc(NCCCCCCNc4ccc5c(c4)C(=O)N(C4CCC(=O)NC4=O)C5=O)cc3)CC2)cc1Cl (stereo partly drawn) [compound 212, N-((1r,4r)-4-(3-chloro-4-cyanophenoxy)cyclohexyl)-4-((6-((2-(2,6-dioxopiperidin-3-yl)-1,3-dioxoisoindolin-5-yl)amino)hexyl)amino)benzamide]
17 | 40 | 62 | 38 | N#Cc1ccc(O[C@H]2CC[C@H](NC(=O)c3ccc(NCCCCCCCNc4ccc5c(c4)C(=O)N(C4CCC(=O)NC4=O)C5=O)cc3)CC2)cc1Cl (stereo partly drawn) [compound 213, N-((1r,4r)-4-(3-chloro-4-cyanophenoxy)cyclohexyl)-4-((7-((2-(2,6-dioxopiperidin-3-yl)-1,3-dioxoisoindolin-5-yl)amino)heptyl)amino)benzamide]
6 | 35 | 58 | 53 | N#Cc1ccc(O[C@H]2CC[C@H](NC(=O)c3ccc(NCCCCCCCCCNc4ccc5c(c4)C(=O)N(C4CCC(=O)NC4=O)C5=O)cc3)CC2)cc1Cl (stereo partly drawn) [compound 215, N-((1r,4r)-4-(3-chloro-4-cyanophenoxy)cyclohexyl)-4-((9-((2-(2,6-dioxopiperidin-3-yl)-1,3-dioxoisoindolin-5-yl)amino)nonyl)amino)benzamide]
−11 | −9 | 1 | 22 | N#Cc1ccc(O[C@H]2CC[C@H](NC(=O)c3ccc(NCCCCCCCCCCNc4ccc5c(c4)C(=O)N(C4CCC(=O)NC4=O)C5=O)cc3)CC2)cc1Cl (stereo partly drawn) [compound 216, N-((1r,4r)-4-(3-chloro-4-cyanophenoxy)cyclohexyl)-4-((10-((2-(2,6-dioxopiperidin-3-yl)-1,3-dioxoisoindolin-5-yl)amino)decyl)amino)benzamide]
17 | 22 | 51 | 34 | N#Cc1ccc(O[C@H]2CC[C@H](NC(=O)c3ccc(N4CCN(CCCCCNc5ccc6c(c5)C(=O)N(C5CCC(=O)NC5=O)C6=O)CC4)cc3)CC2)cc1Cl (stereo partly drawn) [compound 221, N-((1r,4r)-4-(3-chloro-4-cyanophenoxy)cyclohexyl)-4-(4-(5-((2-(2,6-dioxopiperidin-3-yl)-1,3-dioxoisoindolin-5-yl)amino)pentyl)piperazin-1-yl)benzamide]
12 | 21 | 51 | 47 | N#Cc1ccc(O[C@H]2CCC[C@H](NC(=O)c3ccc(N4CCC(N5CCN(c6ccc7c(c6)C(=O)N(C6CCC(=O)NC6=O)C7=O)CC5)CC4)cc3)CCC2)cc1Cl (stereo partly drawn) [compound 228, N-((1r,5r)-5-(3-chloro-4-cyanophenoxy)cyclooctyl)-4-(4-(4-(2-(2,6-dioxopiperidin-3-yl)-1,3-dioxoisoindolin-5-yl)piperazin-1-yl)piperidin-1-yl)benzamide]
